Measured values as given in US20230149146A1, “AN AUTOMATED CONTROLLED RELEASE DEVICE FOR LIVESTOCK MANAGEMENT AND METHODS OF USE THEREOF” (CORNELL UNIVERSITY, priority 2020, published 2023).
“Also recorded” adds a separate entry of the source. Marks after values point to notes of the source that are not given here. Where no end group is shown, it is not given here.

Legend:
lactating Holstein cows [1] = assay: Proof-of-concept: luteal regression by IVG PGF from single-chamber prototype device; assay type: in vivo, cow; conditions: two 50-mg doses of PGF 12 hours apart via prototype (e-Synch PGF); FIG. 13
Protocol: Lactating Holstein cows were randomized to receive two 50-mg doses of PGF 12 hours apart, or an equal amount of saline solution (negative control), or two 25-mg doses of PGF IVG (IVG positive control), or a single 25-mg dose of PGF im (im positive control). There were four cows in each group (except for saline, two cows). […] In short, administration worked as well as standard injections.

lactating Holstein cows [2] = assay: In-vivo validation of automated IVG device: circulating P4 after PGF2α; design: species or system cow
Excerpt: The objective was to develop and validate an electronically-controlled hormone delivery device for reproductive control of cattle. […] The IVG device comprises an outer 3D-printed plastic housing, fluid reservoirs connected to delivery pumps and tubing, a programmable circuit board, and a retention mechanism. For in-vitro testing, 4 pumps were programmed to release different target volumes (0.1, 0.2, 0.5, 1.0, and 2.0 g) in 4 replicates (n=80). A Bland-Altman plot was constructed to assess the magnitude of disagreement between expected and delivered volumes. Observations fell within acceptable limits of agreement (1.96 SD) >95% of the time, indicating overall good agreement (mean difference=−0.005 g). To assess in-vivo performance of the IVG device, lactating Holstein cows with at least 1 corpus luteum ≥15 mm in diameter were randomly allocated to 1 of 3 treatments: IM-PGF (n=6); two 25 mg intramuscular doses of PGF (Dinoprost) 24 h apart, DEV-PGF (n=6); four 25 mg doses of PGF released automatically by the IVG device every 12 h, and DEV-CTL (n=4); insertion of an empty IVG device (placebo control). Blood samples were collected at 0, 12, 24, 36, 48, and 72 h after treatment. Data was analyzed by ANOVA with repeated measures in SAS. All devices (12/12) remained in situ until removed at 48-h. Progesterone (P4) concentrations from 0 to 72 h were affected by treatment, time, and their interaction.
To assess IVG device performance in vivo, lactating nonpregnant primiparous and multiparous Holstein cows from the dairy unit of the Cornell University Ruminant Center (Harford, N.Y.) were enrolled in an experiment. Cows were housed in freestall barns with concrete flooring, self-locking head gates, and fans and sprinklers in the feedline. Cows were milked thrice daily at approximately 8-h intervals and were fed a TMR once a day with ad libitum access to feed and water.
All cows enrolled received a GnRH treatment (200 μg of gonadorelin acetate given intramuscular, Gonabreed, Parnell Pharmaceuticals, Overland Park, Kans., USA) at 40±3 DIM. Seven days later, transrectal ultrasonography (TUS) of the ovaries was performed using a 7.5-MHz linear probe (Ibex Pro; E. I. Medical Imagining, Loveland, Colo.). Cows with […] corpus luteum (CL) ≥15 mm in diameter (n=16) were randomly allocated to 1 of 3 treatments: IM-PGF (n=6), DEV-PGF (n=6), and DEV-CTRL (n=4). Cows in IM-PGF received 2 treatments of 25 mg of PGF2α (12.5 mg/mL of dinoprost tromethamine; Lutalyse HighCon, Zoetis, New York, N.Y.) 24 h apart as a 2 mL injection in the semimembranosus or semitendinosus muscle. Cows in DEV-PGF received 1 IVG device programmed to automatically release 4 doses of 25 mg of PGF2α at ˜12 h intervals (first dose released at time 0). Cows in the DEV-CTRL treatment received an IVG device without PGF2α to serve as a placebo control for the presence of the device in the vagina. All devices were removed at 48 h after insertion.
Blood samples (˜8 to 9 mL) were collected at time 0 and at 12, 24, 36, 48, and 72 h after treatment by puncture of caudal blood vessels using heparinized evacuated tubes (Vacutainer; BD, Franklin Lakes, N.J.). Samples were centrifuged at 2,000×g for 20 min at 4° C. Plasma aliquots were harvested and stored at −20° C. until assayed for progesterone (P4) in duplicate in 3 RIA assays performed as described in Beam, S. W., et al., “Energy balance and ovarian follicle development prior to the first ovulation postpartum in dairy cows receiving three levels of dietary fat.” Biol. Reprod. 56:133-142 (1997), the disclosure of which is incorporated herein by reference in its entirety. The average intra-assay coefficient of variation (CV) was 13.2% whereas the interassay CV was 17.0%. […]

lactating Holstein cows [3] = assay: Luteal regression and plasma P4 after IVG (catheter) or im PGF, first study and follow-up; assay type: in vivo, cow; conditions: for CLR % (complete luteal regression, P4 < 1 ng/mL) / P4 (ng/mL): PGF25-2X-IVG: two IVG boluses 25 mg PGF 12 h apart
cows = assay: Larger experiment: physiological outcomes for cows treated with PGF im or IVG; assay type: in vivo, cow
Excerpt: The PGF experiments' ability to show equal luteal regression with im and IVG administration was limited by small N. Data from a larger, more recent experiment supports non-inferiority for IVG compared to im delivery of PGF to induce luteal regression. […] [table]

lactating Holstein cows [4] = assay: Luteal regression and plasma P4 after IVG (catheter) or im PGF, first study and follow-up; assay type: in vivo, cow
Protocol: Catheters were employed to deliver IVG hormones in lactating Holstein cows. […] In a first study, regression of the corpus luteum (“CL regression”) and plasma P4 concentrations after IVG delivery of 25, 50, or 125 mg PGF (Dinoprost) or of saline 7.5 days after induction of ovulation by Ovsynch injections was evaluated. A positive control group received 25 mg of PGF im (i.e., by intramuscular injection), enabling a comparison of outcomes with im PGF to those with IVG PGF.

lactating Holstein cows [5] = assay: LH response after IVG delivery of GnRH; assay type: in vivo, cow; conditions: citric acid as absorption enhancer
Protocol: LH response of lactating Holstein cows after IVG delivery of GnRH was evaluated. Cows received IVG GnRH (Gonadorelin) at a standard dose of 100 μg, or at doses of 500 or 1,000 μg without and with citric acid as an absorption enhancer. A positive control group received 100 μg GnRH im and a negative control group received saline IVG.

[6] = IVG: two 25 mg doses of PGF 12 h apart
[7] = PGF25-IM: single im bolus 25 mg PGF, 60 h after treatment
[8] = PGF25-IM: single im bolus 25 mg PGF, 72 h after treatment
[9] = PGF25-IVG: single IVG bolus 25 mg PGF, 60 h after treatment
[10] = PGF25-IVG: single IVG bolus 25 mg PGF, 72 h after treatment

CCCCC[C@H](O)/C=C/[C@@H]1[C@@H](C/C=C\CCCC(=O)O)[C@@H](O)C[C@H]1O [PGF, prostaglandin F2α]
pattern of P4 decline (lactating Holstein cows [1]): consistent with CL regression and similar to that of cows in the positive control groups | P4, one cow (lactating Holstein cows [2]; DEV-PGF (four 25 mg doses by IVG device every 12 h), 36 h after treatment): 1.20 ng/mL | P4 concentrations compared with placebo device control (lactating Holstein cows [2]; DEV-PGF and IM-PGF vs DEV-CTRL, from 24 to 72 h): lesser P4 than cows in DEV-CTL; also recorded: lesser concentrations of P4 than cows in the DEV-CTRL treatment | P4, all other cows (lactating Holstein cows [2]; DEV-PGF and IM-PGF, 36 h after treatment): < 1 ng/mL | P4, all other cows, end of the sampling period (lactating Holstein cows [2]; DEV-PGF and IM-PGF, 72 h): < 0.5 ng/mL | luteal regression by PGF delivered automatically by the device (lactating Holstein cows [2]; DEV-PGF, lactating dairy cows): successful induction of luteal regression; also recorded: complete luteal regression | P4, one cow (lactating Holstein cows [2]; IM-PGF (two 25 mg im doses 24 h apart), 36 h after treatment): 1.21 ng/mL | P4, one cow, end of the sampling period (lactating Holstein cows [2]; IM-PGF, 72 h): 0.50 ng/mL | P4 concentrations, DEV-PGF compared with IM-PGF (lactating Holstein cows [2]; entire sampling period, 0 to 72 h): did not differ | CLR % (complete luteal regression, P4 < 1 ng/mL) (lactating Holstein cows [3]; 60 h after treatment): 100^b % | P4 (ng/mL) (lactating Holstein cows [3]; 60 h after treatment): 0.19 ± 0.04^c ng/mL | CLR % (complete luteal regression, P4 < 1 ng/mL) (lactating Holstein cows [3]; 72 h after treatment): 100^b % | P4 (ng/mL) (lactating Holstein cows [3]; 72 h after treatment): 0.21 ± 0.07^c ng/mL | CL regression, single bolus of IVG PGF compared with im PGF (lactating Holstein cows [3]; single IVG bolus (25, 50 or 125 mg) vs 25 mg im): less effectual than im PGF | cows that experienced complete CL regression (lactating Holstein cows [3]; two 25 mg boluses of IVG PGF 12 hours apart, follow-up experiment): 100% | blood/plasma progesterone after treatment compared with im PGF (lactating Holstein cows [3]; two IVG boluses 25 mg PGF 12 h apart (PGF25-2X-IVG) vs PGF25-IM, FIG. 10): indistinguishable from a single dose intramuscular injection of PGF | luteolytic response compared with single im injection (lactating Holstein cows [3]; two IVG boluses of PGF 12 hours apart, summary of the PGF experiments): comparable luteolytic response to a single intramuscular injection of PGF | Estrus after PGF, % (increased physical activity within 72 h of treatment) (cows; IM: 25 mg of PGF im): 47.0% | Ovulation, % (in response to GnRH given within 72 h of PGF treatment) (cows; IM: 25 mg of PGF im): 88.0% | P4 (ng/mL) at 48 h (cows; IM: 25 mg of PGF im): 0.4 ± 0.1 ng/mL | P4 (ng/mL) at 72 h (cows; IM: 25 mg of PGF im): 0.4 ± 0.1 ng/mL | CL regression, % (P4 from >1 ng/mL at treatment to <0.5 ng/mL 72 h after) (cows; IM: 25 mg of PGF im (Dinoprost), n = 169): 81.1% | Estrus after PGF, % (increased physical activity within 72 h of treatment) (cows; [6]): 51.1% | Ovulation, % (in response to GnRH given within 72 h of PGF treatment) (cows; [6]): 84.1% | P4 (ng/mL) at 48 h (cows; [6]): 0.5 ± 0.1 ng/mL | P4 (ng/mL) at 72 h (cows; [6]): 0.6 ± 0.1 ng/mL | CL regression, % (P4 from >1 ng/mL at treatment to <0.5 ng/mL 72 h after) (cows; IVG: two 25 mg doses of PGF 12 h apart (Dinoprost), n = 179): 81.0% | CLR % (complete luteal regression, P4 < 1 ng/mL) (lactating Holstein cows [4]; [7]): 86^b % | P4 (ng/mL) (lactating Holstein cows [4]; [7]): 0.67 ± 0.23^bc ng/mL | CLR % (complete luteal regression, P4 < 1 ng/mL) (lactating Holstein cows [4]; [8]): 86^b % | P4 (ng/mL) (lactating Holstein cows [4]; [8]): 0.57 ± 0.24^c ng/mL | CLR % (complete luteal regression, P4 < 1 ng/mL) (lactating Holstein cows [4]; [9]): 42^b % | P4 (ng/mL) (lactating Holstein cows [4]; [9]): 1.74 ± 0.50^b ng/mL | CLR % (complete luteal regression, P4 < 1 ng/mL) (lactating Holstein cows [4]; [10]): 42^b % | P4 (ng/mL) (lactating Holstein cows [4]; [10]): 2.24 ± 0.64^b ng/mL

gonadotropin releasing hormone (QHWSYGLRPG; ends and bridges not checked; UniProt P01148 24-33, looked up) [GnRH, releasing hormone that triggers LH release]
effect of adding 10% citric acid to the GnRH mixture (lactating Holstein cows [5]): necessary for efficacy of IVG GnRH
